Assay: in vitro
Settings: human, hela cells

`CN(C)C(=O)Oc1ccc2[nH]c3c(c2c1)CCNC31CCN(CCOc2ccccc2)C1` (stereo not shown) [CBK107679] showed a viability at 28.5 h, 10 µM of 95.1%.

Same assay, conditions: human, hela cells, % viability

Going from `CC(C)c1cccc(N2CC(C(=O)Nc3cc(S(C)(=O)=O)ccc3F)CC2=O)c1` (stereo not shown) [CBK296751] to `COC(=O)C(=O)N1CC[C@H]2NC(=O)N(c3ccc(C(C)C)cc3)C(=O)[C@H]21` [CBK289287], the viability at 28.5 h, 10 µM rises from 96.8% to 105%.

Compared with `Cc1ccc(N(CC(=O)N/N=C/c2ccc(Cl)cc2)S(=O)(=O)c2ccccc2)cc1` [CBK262182], `COc1ccc(S(=O)(=O)N(CC(=O)O)c2ccc(Cl)cc2)cc1OC` [CBK267836] is lower in viability at 28.5 h, 10 µM: 98.3% for the first, 97.5% for the second.

Going from `Cc1nc(CCNC(=O)c2cc(C(C)C)n(C(C)(C)C)n2)cs1` [CBK304082] to `Cc1nnc(CS(=O)(=O)Cc2csc(C(C)(C)C)n2)n1C1CC1` [CBK305489], the viability at 28.5 h, 10 µM rises from 89.2% to 109%.

Compared with `COc1ccccc1-c1cn2ccnc2c(N2CCCC2CO)n1` (stereo not shown) [CBK037266], `COc1ncccc1C(=O)N1CCc2ccccc2C1` [CBK200336] is higher in viability at 28.5 h, 10 µM: 96.5% for the first, 96.9% for the second.

Compared with `Cc1ccc(-c2csc(=Nc3ccc(C(=O)O)cc3)n2Cc2ccccc2)cc1` [CBK296062], `Cc1ccccc1NC(=O)Nc1ccc(OCc2ccccc2)cc1` [CBK262861] is higher in viability at 28.5 h, 10 µM: 105% for the first, 108% for the second.

First: Cc1cc(F)c(S(=O)(=O)N2CCN(C)CC2)cc1NC(=O)c1cc2ccccc2o1 [CBK034419C]
Second: Cc1cc(C)n(-c2nc3ccccc3nc2N2CCN(S(=O)(=O)c3ccc(F)c(C)c3)CC2)n1 [CBK268508]
The viability at 28.5 h, 10 µM of the first is higher: 94% for the first, 91.1% for the second.

First: Fc1ccc(-c2ccc(Nc3cccnc3)nc2)cc1Cl [CBK037642]
Second: CCCCc1ccc(-c2cnc3ncccc3c2N)cc1 [CBK083683]
The viability at 28.5 h, 10 µM of the first is lower: 93% for the first, 96.2% for the second.

Going from `Cc1ccc(S(=O)(=O)N(Cc2c(F)cccc2F)C2CCNCC2)cc1` [CBK163927T] to `O=C(CCCOc1ccccc1)NCc1ccc(OC2CCNCC2)cc1` [CBK028427T], the viability at 28.5 h, 10 µM rises from 89.9% to 92.1%.

First: CCc1nn(CC(=O)NCC2CC2)c(=O)c2cc3sc(C)cc3n12 [CBK284100]
Second: CCn1nc2c(C)cc3cc(OC)ccc3n2c1=O [CBK283823]
The viability at 28.5 h, 10 µM of the first is higher: 85.7% for the first, 74.6% for the second.

Compared with `COc1ccc(-c2cnn(-c3ccc(OC(F)(F)F)cc3)n2)cc1` [CBK112773], `COc1cccc(C(=O)Nc2ccc(-c3noc(-c4ccccn4)n3)cc2)c1` [CBK270055] is higher in viability at 28.5 h, 10 µM: 87.6% for the first, 110% for the second.

Going from `O=c1[nH]c2ncc(-c3cccc4ccccc34)nc2n1Cc1cccnc1` [CBK064274] to `CC(C)NC(=O)c1sc2ccccc2c1C1CN(Cc2ccc3ncccc3c2)CCO1` (stereo not shown) [CBK285930], the viability at 28.5 h, 10 µM falls from 102% to 81.5%.

First: S=C(Nc1cccnc1)N[C@H]1CC[C@@]2(c3cccnc3)CCN(Cc3ccccc3)[C@H]2C1 [CBK028450]
Second: O=[N+]([O-])c1ccc(N2CCN(Cc3ccccc3)CC2)cc1NCc1ccccc1 [CBK045841]
The viability at 28.5 h, 10 µM of the first is higher: 94.8% for the first, 86.9% for the second.

First: Nc1ncnc(NCCc2c[nH]c3ccccc23)c1[N+](=O)[O-] [CBK267283]
Second: O=C(NCCc1c[nH]c2ccccc12)C(=O)Nc1ccncc1 [CBK287754]
The viability at 28.5 h, 10 µM of the first is lower: 29.6% for the first, 101% for the second.

Going from `COC1C(O)C(CO)OC1n1cc(I)c(N)nc1=O` (stereo not shown) [CBK201296] to `COCC(=O)N1CCC(c2cc3nc(C(F)(F)F)ccc3[nH]2)CC1` [CBK282185], the viability at 28.5 h, 10 µM rises from 92.2% to 110%.

Compared with `CC(Cn1cncn1)C(=O)N1CCCCC1CCc1ccccc1` (stereo not shown) [CBK282265], `COc1ccc(CCN2CCC(CNC(=O)NCc3ccccc3)CC2)cc1OC` [CBK051511T] is lower in viability at 28.5 h, 10 µM: 109% for the first, 92.3% for the second.

Going from `COC(=O)c1sccc1NC(=O)COc1ccc([N+](=O)[O-])cc1Cl` [CBK066828] to `O=C(NCCNc1ccc(Cl)cc1[N+](=O)[O-])c1c(F)cccc1F` [CBK269643], the viability at 28.5 h, 10 µM falls from 109% to 97.6%.

Compared with `Cc1cc(C[C@@H]2COC[C@H]2NCC(C)c2ccccc2)on1` (stereo partly shown) [CBK285145], `Cc1ccnc(Nc2nc3ccccc3o2)n1` [CBK022772] is lower in viability at 28.5 h, 10 µM: 88.5% for the first, 87.5% for the second.

Compared with `CCCCN1CCCC1c1c[nH]c2ccccc12` (stereo not shown) [CBK023773G], `COc1ccc(CC(=O)N2CCC[C@@H](N)[C@@H]2c2ccccc2F)cc1` [CBK283456] is higher in viability at 28.5 h, 10 µM: 93% for the first, 102% for the second.

Compared with `Nc1nonc1C(=O)NCCNCc1cccs1` [CBK267305], `O=C(NCCn1nc(-c2cccs2)ccc1=O)c1ccco1` [CBK283838] is lower in viability at 28.5 h, 10 µM: 95.2% for the first, 90.1% for the second.

Going from `COc1ccc(OC)c(NC(=S)NCCN2CCOCC2)c1` [CBK264927] to `COCCN1CCCC(NC(C)c2ccc(OC)c(F)c2)C1` (stereo not shown) [CBK305099], the viability at 28.5 h, 10 µM falls from 96.9% to 80.9%.

First: COc1ccc2[nH]cc(C(C(=O)O)N3CCN(Cc4ccccn4)CC3)c2c1 (stereo not shown) [CBK286846]
Second: CC(C)c1ccc(S(=O)(=O)N2CCN(c3ncnc4c3oc3ccccc34)CC2)cc1 [CBK296936]
The viability at 28.5 h, 10 µM of the first is lower: 80.5% for the first, 84.9% for the second.

Going from `COc1ccc(-c2csc(NC(=O)C(C)C)c2C(=O)O)cc1` [CBK286622] to `COc1ccc(C2(NCc3ccc4c(c3)n(C)c(=O)n4C)CC2)cc1` [CBK282836], the viability at 28.5 h, 10 µM rises from 83.1% to 103%.

Going from `Cn1c(=O)n(C)c2cc(NC(=O)CSc3nc(Nc4ccccc4)nc(N4CCOCC4)n3)ccc21` [CBK269041] to `Cc1cc(N2CCOC3(CCN(C(=O)c4ccc5ccccc5c4)CC3)C2)nc(N)n1` [CBK161125A], the viability at 28.5 h, 10 µM falls from 111% to 93.2%.

Compared with `NC(=O)C1CCN(C2=NC(=O)/C(=C/c3cn(-c4ccccc4)nc3-c3cccs3)S2)CC1` [CBK265179], `C[C@]12CN(C(=O)c3ccccc3)C[C@H]1NC(=O)c1ccccc1C2=O` [CBK281657] is higher in viability at 28.5 h, 10 µM: 97.3% for the first, 102% for the second.

Compared with `O=C(O)c1cc(-n2c(S)nnc2-c2ccncc2)ccc1Cl` [CBK268989], `Nc1ccccc1C(=O)NCc1ccncc1` [CBK057024] is lower in viability at 28.5 h, 10 µM: 94.9% for the first, 90.1% for the second.

Compared with `Cc1cccc(C)c1NC(=O)CC(CN1CCN(Cc2c(C)noc2C)CC1)C(=O)O` (stereo not shown) [CBK286715], `CCc1nc(CN2CCCC(NCc3cccc(C(N)=O)c3)C2)no1` (stereo not shown) [CBK306254] is lower in viability at 28.5 h, 10 µM: 89.8% for the first, 87.2% for the second.

Going from `O=C(CSCCO)Nc1cccc2ccccc12` [CBK265623] to `O=C(NCCO)c1nc(NCCO)c2ccccc2n1` [CBK267239], the viability at 28.5 h, 10 µM rises from 85.4% to 110%.

Going from `O=C(O)c1cccc(NS(=O)(=O)c2ccc(-c3cc(C(F)(F)F)on3)s2)c1` [CBK155722] to `Oc1cccc(-c2nccnc2NCc2cccc(C(F)(F)F)c2)c1` [CBK037014], the viability at 28.5 h, 10 µM falls from 98% to 86.9%.

First: Cc1csc(C(=O)N2CCC(c3cc(O)cc(C)n3)CC2)c1 [CBK283466]
Second: CCCNc1nccnc1-c1ccc(C(=O)N2CCN(C)CC2)cc1 [CBK036892]
The viability at 28.5 h, 10 µM of the first is lower: 89% for the first, 110% for the second.

Going from `CC(C)Nc1ccc(S(=O)(=O)N(Cc2ccccc2)Cc2ccccc2)cn1` [CBK267307] to `N[C@H](CSCc1ccccc1)C(=O)Nc1ccc([N+](=O)[O-])cc1` [CBK074824], the viability at 28.5 h, 10 µM rises from 84.6% to 88.8%.

Compared with `CNC(=O)c1ccc(NC(=O)CC(C)(C)CC(=O)O)cc1` [CBK296615], `Cc1ccc(C(=O)N2CC(=O)N(CCO)C2)cc1` [CBK045864] is higher in viability at 28.5 h, 10 µM: 95.8% for the first, 110% for the second.

First: COc1cc(C(c2c(C)n(C)n(-c3ccccc3)c2=O)c2c(C)n(C)n(-c3ccccc3)c2=O)ccc1O [CBK261690]
Second: C=CCOc1ccc(-c2nc3s/c(=C4\C(=O)N(Cc5ccccc5F)c5ccccc54)c(=O)n3n2)cc1 [CBK266615]
The viability at 28.5 h, 10 µM of the first is higher: 110% for the first, 108% for the second.

Compared with `Cc1ccc(NC(=O)c2ccc3nccnc3c2)c(C)n1` [CBK200219], `O=C(Nc1n[nH]c2ccccc12)c1ccccc1` [CBK017993] is lower in viability at 28.5 h, 10 µM: 93.6% for the first, 90.1% for the second.

Compared with `Cc1ncccc1C(=O)NC(CC(C)C)c1nnc2n1CCNCC2` (stereo not shown) [CBK307348], `CCn1c(=O)n(CC(=O)N2CCCCC2C)c2cccnc21` (stereo not shown) [CBK283896] is higher in viability at 28.5 h, 10 µM: 80.5% for the first, 103% for the second.

Compared with `Cc1ccc2nc(CSc3ncnc4sc(C)cc34)[nH]c2c1` [CBK270047], `CC(=O)c1ccc(-c2nc(NC(=O)CC3OC(=O)c4ccccc43)cnc2-c2cccc(C)c2)s1` (stereo not shown) [CBK037152] is higher in viability at 28.5 h, 10 µM: 97.1% for the first, 112% for the second.

Compared with `O=C(Nc1cccc(O)c1)c1ccc2c(c1)C(=O)N(c1cccc(N3C(=O)c4ccc(C(=O)Nc5cccc(O)c5)cc4C3=O)n1)C2=O` [CBK261199], `Oc1ccc(Cl)cc1/C=N/c1ccc(-c2cc(-c3ccc(/N=C/c4cc(Cl)ccc4O)cc3)ncn2)cc1` [CBK261626] is higher in viability at 28.5 h, 10 µM: 89.8% for the first, 101% for the second.

Compared with `CN(C)CCNC(=O)CSc1ccccc1` [CBK268426], `O=C(O)CSCC(=O)c1ccccc1` [CBK262140] is lower in viability at 28.5 h, 10 µM: 98.6% for the first, 93.1% for the second.

First: CN1C(=O)CN(C2CCCCC2)C1=O [CBK116320]
Second: CN(C)CCn1c(=O)oc2ccc(NC(=O)C3CCCO3)cc21 (stereo not shown) [CBK304913]
The viability at 28.5 h, 10 µM of the first is lower: 82.3% for the first, 93.9% for the second.

First: CCN(CC)CCO/N=C1\CC2(CCCCC2)c2ccccc21 [CBK013325]
Second: CC(C)N(C(=O)N1CCC2(CC1)CC(=O)c1ccccc1O2)C(C)C [CBK284010]
The viability at 28.5 h, 10 µM of the first is higher: 101% for the first, 90.7% for the second.

Compared with `CC(C)N1CCC2(C/C=C/CNC(=O)c3ccccc3OCCNC2=O)CC1` [CBK292094], `Cc1cc(C)n(-c2ccc(CN3C(=O)NC4(CCCC4)C3=O)cc2)n1` [CBK305796] is lower in viability at 28.5 h, 10 µM: 98.7% for the first, 88.3% for the second.

Compared with `C=CCN1C(=O)CC2(C1=O)C(=O)N(Cc1nc(-c3ccc(Cl)cc3)no1)c1ccc(OC)cc12` (stereo not shown) [CBK075692], `COc1cc2c(cc1OC)CN(S(=O)(=O)c1cc(C(=O)O)ccc1Cl)CC2` [CBK296923] is lower in viability at 28.5 h, 10 µM: 97.1% for the first, 96% for the second.

Going from `COc1ccc(/C=C(\C)C(=O)Nc2ccc(N3CCNCC3)c3ccccc23)cc1OC` [CBK038913T] to `CCn1c2ccccc2c2ccc(/C=N/NC(=O)c3ccc(O)cc3O)cc21` [CBK262948], the viability at 28.5 h, 10 µM falls from 92.4% to 56.9%.

First: Cc1cc(C(=O)CSc2nc(=O)cc(O)n2CC(C)C)c(C)n1C [CBK295649]
Second: COc1cc2c(cc1OC)C(C)N(Cc1cc(C)c(O)c(C)c1)CC2 (stereo not shown) [CBK074659C]
The viability at 28.5 h, 10 µM of the first is lower: 85.4% for the first, 99.9% for the second.

`COc1cc2c3c(cccc3c1)CC(C)(N(C)C)C2` (stereo not shown) [CBK024357C] gave a viability at 28.5 h, 10 µM of 105%.

— publication PMC12040169 (PLOS Biology, 2025)
